Assay results as given in patent publication US20230272357A1, “METHODS OF GENOME EDITING INCLUDING CONTROLLED OPENING OF CHROMATIN” (Wisconsin Alumni Research Foundation, priority 2021, published 2023).

Key:
Type in all cases: cell-based, human
[1] = system: iPSCs; assay: Cell viability by Ghost Dye Red 780 flow cytometry
Method: Cell viability: Flow cytometry was performed using Ghost Dye™ Red 780 viability dye (Tonbo Biosciences) to determine the dose range of the TSA that can be administrated to the cells without affecting cell viability. iPSCs (15,000 per well) were cultured overnight and incubated with TSA in 96-well plates for 24 h. The next day, cells were singularized using Accutase™ (STEMCELL technologies), washed with PBS, centrifuged at 300 g for 5 minutes, and Ghost Dye™ Red 780 viability dye was added at 1:1000 concentration for 20 minutes at room temperature. Cells were then washed with PBS, spun down at 300g for 5 minutes, and resuspended in 300 μL of PBS. Cells were run on an Attune NxT™ flow cytometer (Thermo Fisher Scientific) and subsequent analysis was performed using Flowjo software (BD).
Flow cytometry and fluorescence activated cell sorting: Flow cytometry was performed on singularized iPSCs using Attune™ Nxt flow cytometer (ThermoFisher Scientific) and analyzed using the FlowJo Software. Ghost Dye™ Red 780, ATTO 550, and GFP fluorescence were detected using 780/60, 585/16, and 530/30 filters in […] positions, respectively. Gates were established by running singularized untransfected iPSCs. The percentage of viable cells was calculated as the ratio of Ghost Dye™ Red 780-cells to the total number of single cells. Transfection efficiency was calculated as the percentage of ATTO 550+ cells to the total number of viable cells on day 2 post-transfection. Gene editing efficiency was calculated as the percentage of GFP-cells to the total number of viable cells on day 6 post-transfection. For the sorting experiments, iPSCs were singularized 6 days post-transfection using Accutase™, washed with PBS+20 μM ROCK inhibitor, centrifuged at 300 g for 5 minutes. Ghost Dye™ Red 780 viability dye (Tonbo Biosciences) was then added at 1:1000 concentration for 20 minutes at room temperature. Cells were washed again with PBS+20 μM ROCK inhibitor, spun down at 300 g for 5 minutes, and resuspended in 300 μL of FACS buffer (PBS+2% BSA+20 μM ROCK inhibitor). GFP-cells were then sorted into tubes containing mTeSR1+20 μM ROCK inhibitor, and seeded onto Matrigel®-coated 6 well polystyrene plates at 100 cells/well to obtain single-cell iPSC clones.

[2] = system: HIST1H2BJ-GFP reporter iPSC nuclei; assay: Live in situ nuclear imaging of chromatin condensation (CellProfiler); settings: TSA 0, 3.13, 6.25, 12.5 ng/mL, FIG. 1C,D
Method: Antibodies and Staining: All cells were fixed for 15 minutes with 4% paraformaldehyde in PBS (Sigma-Aldrich, St. Louis, Mo.) and permeabilized with 0.5% Triton™-X (Sigma-Aldrich) for >4 hours at room temperature before staining. Hoechst (H1399; Thermo Fisher Scientific, Waltham, Mass.) was used at 5 μg/mL with 15 min incubation at room temperature to stain nuclei. Primary antibodies were applied overnight at 4° C. in a blocking buffer of 5% donkey serum (Sigma-Aldrich) at the following concentrations: H3K9Me3 (ab8898; Abcam) 1:500; H3K9Ac (39918; Active Motif) 1:100; H3K27Me3 (C36B11; Cell Signaling Technology) 1:200. […]
After streamlining the gene editing strategy, the effect of TSA treatment on the gene editing efficiency of iPSCs was examined The iPSCs were pre-treated with TSA (0, 3.13, 6.25, and 12.5 ng/mL) and their nuclei imaged. […] The images were then used as inputs for a CellProfiler software pipeline to output the chromatin condensation % of the nuclei (data not shown), defined as the ratio of total heterochromatin intensity to the total nuclear intensity. […]

[3] = system: iPSCs; assay: Bulk RNA sequencing of TSA-treated iPSCs; settings: edited clones from 6.25 ng/mL TSA, data not shown
Method: RNA extraction and Bulk RNA sequencing: RNA was extracted from iPSCs in one well of 6-well plate using the GenElute™ Total RNA Purification Kit (Millipore Sigma) according to the manufacturer's instructions. RNA was then quantified using Nanodrop™ 2000 (ThermoFisher Scientific) and the integrity of samples were confirmed with the following three criteria for inclusion: 1) a concentration>50 ng/ml, 2) an A260/A280 rating of 1.8 and 2.1, and 3) an A260/A230 ratio>1.8. Total RNA was submitted to the University of Wisconsin-Madison Biotechnology Center and was verified for purity and integrity via the NanoDrop™ One Spectrophotometer and Agilent 2100 BioAnalyzer, respectively. Samples that met the Illumina® sample input guidelines were prepared according to the TruSeq®Stranded Total Sample Preparation Guide (1000000040499 v00) using the Illumina® TruSeq ® Stranded Total Sample Preparation kits (Illumina Inc., San Diego, Calif., USA) and sequenced on an Illumina® NovaSeg™ 6000 system at a run length 2×150 bp and target read depth of 30 million reads/sample at the University of Wisconsin—Madison Biotechnology Center. […] Normalized counts were then extracted and genes with read counts <10 were filtered out. Fold change was then calculated as the ratio of the reads of the TSA-treated iPSCs to the untreated iPSCs.

[4] = system: iPSCs; assay: iPSC morphology during long-term culture of edited cells; settings: long-term culture of the edited cells, 6.25 ng/mL TSA

Structure (SMILES): CC(/C=C/C(=O)NO)=C\[C@@H](C)C(=O)c1ccc(N(C)C)cc1 [TSA, Trichostatin A]
- Cell toxicity ([1]; 12.5 ng/mL TSA, FIG. 1E): higher cell toxicity
- Cell viability (% GhostDye- cells/total cells) ([1]; TSA 0, 3.13, 6.25, 12.5 ng/mL, FIG. 1D): decreases
- Cell viability ([1]; iPSCs, TSA 0-200 ng/mL, data not shown): decreased with the increase in TSA concentration
- TSA concentration with considerable decrease in cell viability ([1]; iPSCs, TSA range 0-200 ng/mL tested): > 25 ng/mL
- Chromatin condensation % (heterochromatin intensity to total nuclear intensity) [2]: decrease
- Gene expression of pluripotency marker genes (OCT4, NANOG, SOX2, TRA-1-60) [3]: did not decrease
- iPSC morphology [4]: no changes
